According to PubChem BioAssay (NCI):
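Assay format: 96-well plates, 48-hour exposure. Here, GI50 denotes the concentration required for 50% inhibition of growth. TGI is the concentration that stops growth completely.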

Legend:
Assay in all cases: inhibition of tumour cell growth, NCI panel, 48 h
[1] = test system: MALME-3M melanoma
[2] = test system: NCI-H522 lung
[3] = test system: HS 578T breast
[4] = test system: OVCAR-4 ovarian
[5] = test system: NCI-H23 lung
[6] = test system: NCI-H226 lung
[7] = test system: SW-620 colon
[8] = test system: COLO 205 colon
[9] = test system: SK-MEL-28 melanoma
[10] = test system: BT-549 breast
[11] = test system: SK-MEL-5 melanoma
[12] = test system: RXF 393 renal
[13] = test system: MDA-MB-435
[14] = test system: EKVX NSCLC
[15] = test system: SNB-75 CNS
[16] = test system: SF-539 CNS
[17] = test system: IGROV1 ovarian
[18] = test system: CCRF-CEM leukemia
[19] = test system: HCT-15 colon
[20] = test system: CAKI-1 renal
[21] = test system: HT29 colon
[22] = test system: RPMI-8226 leukemia
[23] = test system: A549 NSCLC
[24] = test system: SF-268 CNS
[25] = test system: NCI/ADR-RES ovarian
[26] = test system: KM12 colon
[27] = test system: M14 melanoma
[28] = test system: UO-31 renal
[29] = test system: HOP-92 NSCLC
[30] = test system: OVCAR-3 ovarian
[31] = test system: ACHN renal
[32] = test system: DU-145 prostate
[33] = test system: NCI-H460 lung
[34] = test system: HL-60(TB) leukemia
[35] = test system: SF-295 CNS
[36] = test system: HOP-62 NSCLC
[37] = test system: SK-OV-3 ovarian
[38] = test system: UACC-257 melanoma
[39] = test system: SK-MEL-2 melanoma
[40] = test system: MDA-MB-231 breast
[41] = test system: T-47D breast
[42] = test system: K-562 leukemia
[43] = test system: UACC-62 melanoma
[44] = test system: PC-3 prostate
[45] = test system: OVCAR-5 ovarian
[46] = test system: SN12C renal
[47] = test system: TK-10 renal
[48] = test system: MOLT-4 leukemia
[49] = test system: HCC-2998 colon
[50] = test system: LOX IMVI melanoma
[51] = test system: 786-0 renal
[52] = test system: A498 renal
[53] = test system: U251 CNS
[54] = test system: SR leukemia
[55] = test system: MCF7 breast
[56] = test system: HCT-116 colon
[57] = test system: SNB-19 CNS
[58] = test system: OVCAR-8 ovarian

N=C(N)c1ccc(-c2ccc(-c3ccc(F)cc3)s2)nc1
GI50 [1]: 1.71 µM
TGI [1]: 3.21 µM
GI50 [2]: 2.05 µM
TGI [2]: 4.63 µM
GI50 [3]: 2.72 µM
TGI [3]: 8.89 µM
GI50 [4]: 1.87 µM
TGI [4]: 3.67 µM
GI50 [5]: 2.87 µM
TGI [5]: 8.99 µM
GI50 [6]: 10.3 µM
TGI [6]: 32.9 µM
GI50 [7]: 1.84 µM
TGI [7]: 3.65 µM
GI50 [8]: 2.12 µM
TGI [8]: 4.76 µM
GI50 [9]: 2.13 µM
TGI [9]: 4.45 µM
GI50 [10]: 5.11 µM
TGI [10]: 30.1 µM
GI50 [11]: 1.8 µM
TGI [11]: 3.24 µM
GI50 [12]: 3.84 µM
TGI [12]: 16.9 µM
GI50 [13]: 1.71 µM
TGI [13]: 3.17 µM
GI50 [14]: 4.26 µM
TGI [14]: 22.9 µM
GI50 [15]: 1.55 µM
TGI [15]: 4.05 µM
GI50 [16]: 1.75 µM
TGI [16]: 3.2 µM
GI50 [17]: 1.78 µM
TGI [17]: 3.61 µM
GI50 [18]: 2.46 µM
TGI [18]: 6.06 µM
GI50 [19]: 1.84 µM
TGI [19]: 3.56 µM
GI50 [20]: 1.67 µM
TGI [20]: 3.06 µM
GI50 [21]: 2.13 µM
TGI [21]: 5.52 µM
GI50 [22]: 2.68 µM
TGI [22]: 6.83 µM
GI50 [23]: 2.11 µM
TGI [23]: 4.78 µM
GI50 [24]: 2.51 µM
TGI [24]: 6.98 µM
GI50 [25]: 2.72 µM
TGI [25]: 6.86 µM
GI50 [26]: 1.92 µM
TGI [26]: 3.57 µM
GI50 [27]: 1.79 µM
TGI [27]: 3.69 µM
GI50 [28]: 1.53 µM
TGI [28]: 2.87 µM
GI50 [29]: 2.02 µM
TGI [29]: 8.58 µM
GI50 [30]: 1.77 µM
TGI [30]: 3.26 µM
GI50 [31]: 1.81 µM
TGI [31]: 3.2 µM
GI50 [32]: 1.83 µM
TGI [32]: 3.27 µM
GI50 [33]: 1.88 µM
TGI [33]: 3.68 µM
GI50 [34]: 1.46 µM
TGI [34]: 3.38 µM
GI50 [35]: 1.85 µM
TGI [35]: 3.63 µM
GI50 [36]: 2.39 µM
TGI [36]: 6.21 µM
GI50 [37]: 11 µM
TGI [37]: 28.9 µM
GI50 [38]: 2.2 µM
TGI [38]: 5.12 µM
GI50 [39]: 3.23 µM
TGI [39]: 9.95 µM
GI50 [40]: 1.73 µM
TGI [40]: 3.26 µM
GI50 [41]: 2.18 µM
TGI [41]: 6.68 µM
GI50 [42]: 0.374 µM
TGI [42]: 1.75 µM
GI50 [43]: 1.94 µM
TGI [43]: 4.24 µM
GI50 [44]: 2.23 µM
TGI [44]: 6.04 µM
GI50 [45]: 1.73 µM
TGI [45]: 3.3 µM

CC(C)=C[C@@H]1C[C@H](C)[C@H]2CC[C@H](C)c3c(O)c(OC4OCC(O)C(O)C4O)c(C)c1c32 (stereo not given in full)
GI50 [46]: 10.2 µM
TGI [46]: 21.8 µM
GI50 [1]: 14.1 µM
TGI [1]: 27.6 µM
GI50 [2]: 16.4 µM
TGI [2]: 30.2 µM
GI50 [3]: 15.4 µM
TGI [3]: 32.1 µM
GI50 [4]: 9.39 µM
TGI [4]: 22.1 µM
GI50 [5]: 12.8 µM
TGI [5]: 25.5 µM
GI50 [6]: 15.8 µM
TGI [6]: 30.6 µM
GI50 [7]: 15.9 µM
TGI [7]: 29.3 µM
GI50 [8]: 15.5 µM
TGI [8]: 29.7 µM
GI50 [9]: 14.4 µM
TGI [9]: 27.7 µM
GI50 [10]: 21.6 µM
TGI [10]: 39.9 µM
GI50 [11]: 12.3 µM
TGI [11]: 25 µM
GI50 [12]: 10.9 µM
TGI [12]: 23.4 µM
GI50 [13]: 11.4 µM
TGI [13]: 24.3 µM
GI50 [14]: 18.8 µM
TGI [14]: 33.3 µM
GI50 [15]: 12.7 µM
TGI [15]: 25.9 µM
GI50 [47]: 15.4 µM
TGI [47]: 28.9 µM
GI50 [16]: 18.7 µM
TGI [16]: 34.6 µM
GI50 [17]: 12 µM
TGI [17]: 24.3 µM
GI50 [48]: 5.24 µM
TGI [48]: 19.7 µM
GI50 [19]: 14 µM
TGI [19]: 26.9 µM
GI50 [20]: 3.91 µM
TGI [20]: 18.7 µM
GI50 [49]: 4.43 µM
TGI [49]: 19.8 µM
GI50 [21]: 11.7 µM
TGI [21]: 24.7 µM
GI50 [50]: 15 µM
TGI [50]: 28.2 µM
GI50 [22]: 10.8 µM
TGI [22]: 22.9 µM
GI50 [23]: 10.3 µM
TGI [23]: 22.7 µM
GI50 [51]: 17.9 µM
TGI [51]: 34.8 µM
GI50 [24]: 12.4 µM
TGI [24]: 24.9 µM
GI50 [52]: 13.4 µM
TGI [52]: 27.5 µM
GI50 [53]: 16.1 µM
TGI [53]: 29.6 µM
GI50 [25]: 10.2 µM
TGI [25]: 21.9 µM
GI50 [26]: 12.7 µM
TGI [26]: 25.3 µM
GI50 [27]: 15.8 µM
TGI [27]: 39.3 µM
GI50 [54]: 6.92 µM
TGI [54]: 20.5 µM
GI50 [55]: 13.1 µM
TGI [55]: 25.8 µM
GI50 [56]: 13.9 µM
TGI [56]: 28.4 µM
GI50 [28]: 17.8 µM
TGI [28]: 31.6 µM
GI50 [29]: 12.3 µM
TGI [29]: 24.7 µM
GI50 [30]: 11.9 µM
TGI [30]: 24.3 µM
GI50 [31]: 14.6 µM
TGI [31]: 27.8 µM
GI50 [32]: 11.8 µM
TGI [32]: 24 µM
GI50 [33]: 12.3 µM
TGI [33]: 24.7 µM
GI50 [34]: 10.9 µM
TGI [34]: 24.5 µM
GI50 [35]: 14.2 µM
TGI [35]: 29.3 µM
GI50 [36]: 18.2 µM
TGI [36]: 33.6 µM
GI50 [37]: 18.9 µM
TGI [37]: 33.2 µM
GI50 [38]: 6.44 µM
TGI [38]: 19.7 µM
GI50 [39]: 20.8 µM
TGI [39]: 36.4 µM
GI50 [40]: 13.5 µM
TGI [40]: 26.3 µM
GI50 [57]: 16.2 µM
TGI [57]: 29.8 µM
GI50 [41]: 13.3 µM
TGI [41]: 28.1 µM
GI50 [42]: 5.73 µM
TGI [42]: 20.5 µM
GI50 [58]: 16.6 µM
TGI [58]: 33 µM
GI50 [45]: 12.6 µM
TGI [45]: 25.2 µM
